Measurements published in patent publication US20240360114A1 (SIRONAX LTD., priority 2021, published 2024).

Test system: HT-1080 cells
Assay: HT-1080 cell viability assay (ferroptosis induced by RSL3, Cell Titer-Glo)
Assay type: cell-based
Conditions: ferroptosis inducer RSL3, 20 hours, ferroptosis inhibitory activity
In short: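 Cells seeded overnight, then co-treated with RSL3 and compound (3-fold, 10-point dilution, top 1.1 μM) for 20 hours. Viability by CellTiter-Glo luminescence, normalized to untreated controls; EC50 from sigmoidal non-linear regression.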

[1] = Homo sapiens, HT-1080, 20 h, Table 2
[2] = Homo sapiens, HT-1080, 20 h, Table 3

Row | EC50 [1] | SMILES | also measured
1 | 0.1 to 100 nM | CC(C)C1CCN(c2ncc(NC3CC(CN)C3)cn2)CC1 (centres unmarked) [Compound 49, N-(3-(aminomethyl)cyclobutyl)-2-(4-isopropylpiperidin-1-yl)pyrimidin-5-amine] | 
2 | 0.1 to 100 nM | Cc1cc(N2CCC(C(F)(F)F)CC2)ccc1NCC[C@H]1CC[C@H](N)CC1 [Compound 383, N-(2-((1r,4r)-4-aminocyclohexyl)ethyl)-2-methyl-4-(4-(trifluoromethyl)piperidin-1-yl)aniline] | 
3 | 0.1 to 100 nM | CC(C)C1CCN(c2ncc(NC3CC4(CC(NCC(F)(F)F)C4)C3)cn2)CC1 (centres unmarked) [Compound 414, N2-(2-(4-isopropylpiperidin-1-yl)pyrimidin-5-yl)-N6-(2,2,2-trifluoroethyl)spiro[3.3]heptane-2,6-diamine] | 
4 | 1000 to 10000 nM | CC(C)(C)c1ccc(NC2CCC(N)CC2)c(C#N)c1 (centres unmarked) [Compound 187, 2-((4-aminocyclohexyl)amino)-5-(tert-butyl)benzonitrile] | 
5 |  | CC(=O)N1CCN(CCNc2ccc(N3CC(C)OC(C)C3)nc2C)CC1 (centres unmarked) [Compound 607, 1-(4-(2-((6-(2,6-dimethylmorpholino)-2-methylpyridin-3-yl)amino)ethyl)piperazin-1-yl)ethan-1-one] | EC50 [2]: 100 to 1000 nM
6 | 0.1 to 100 nM | N[C@H]1CC[C@H](CNc2ccc3c(c2)CCCC3)CC1 [Compound 310, N-(((1r,4r)-4-aminocyclohexyl)methyl)-5,6,7,8-tetrahydronaphthalen-2-amine] | 
7 | 1000 to 10000 nM | CC(C)(C)c1ccc(NC2CCC(N)(C(=O)O)CC2)cc1 (centres unmarked) [Compound 189, 1-amino-4-((4-(tert-butyl)phenyl)amino)cyclohexane-1-carboxylic acid] | 
8 |  | NCC1CCC(Nc2ccccc2)CC1 (single isomer, unassigned) [Compound 92B, N-(4-(aminomethyl)cyclohexyl)aniline] | EC50 (Table 2): 100 to 1000 nM
9 | 1000 to 10000 nM | CC1CN(c2ccc(NC[C@H]3CC[C@H](N)CC3)c(C#N)c2)CC(C)O1 (some centres unmarked) [Compound 484, 2-((((1r,4r)-4-aminocyclohexyl)methyl)amino)-5-(2,6-dimethylmorpholino) benzonitrile] | 
10 | 0.1 to 100 nM | NC1CC2(C1)CC(Nc1ccc(N3CCN(CC(F)(F)F)CC3)cc1)C2 (centres unmarked) [Compound 505, N2-(4-(4-(2,2,2-trifluoroethyl)piperazin-1-yl)phenyl)spiro[3.3]heptane-2,6-diamine] | 
11 |  | NC(=O)C1CC2(CC(Nc3ccc4cc(N5CCC(C(F)(F)F)CC5)ccc4c3)C2)C1 (centres unmarked) [Compound 584, 6-((6-(4-(trifluoromethyl)piperidin-1-yl)naphthalen-2-yl)amino)spiro[3.3]heptane-2-carboxamide] | EC50 [2]: 0.1 to 100 nM
12 | 0.1 to 100 nM | Cc1nc(N2CC(C)N(CC(F)(F)F)C(C)C2)ccc1NC1CC2(CC(N)C2)C1 (centres unmarked) [Compound 493, N2-(6-(3,5-dimethyl-4-(2,2,2-trifluoroethyl)piperazin-1-yl)-2-methylpyridin-3-yl)spiro[3.3]heptane-2,6-diamine] | 
13 | 0.1 to 100 nM | Cc1cc(NC2CC(C(=O)NN)C2)ccc1N1CCC(C)CC1 (centres unmarked) [Compound 489] | 
14 |  | CC1(C)CN(c2ccc3cc(NC4CC5(CC(N)C5)C4)ccc3n2)CC(C)(C)O1 (centres unmarked) [Compound 646, N2-(2-(2,2,6,6-tetramethylmorpholino)quinolin-6-yl)spiro[3.3]heptane-2,6-diamine] | EC50 [2]: 0.1 to 100 nM
15 | 0.1 to 100 nM | CC1CN(c2ccc(NC3C4CC5CC3CC(CN)(C5)C4)cc2)CC(C)O1 (centres unmarked) [Compound 426, 5-(aminomethyl)-N-(4-(2,6-dimethylmorpholino)phenyl)adamantan-2-amine] | 
16 |  | CC(C)(C)c1ccc(NCC2CC(N)C2)cc1 (single isomer, unassigned) [Compound 335B, N-((3-aminocyclobutyl)methyl)-4-(tert-butyl)aniline] | EC50 (Table 2): 0.1 to 100 nM
17 | 0.1 to 100 nM | CN(C)C1CCC(NC(=O)C2CCC(Nc3ccc(C4CCC(C)(C)CC4)cc3)CC2)CC1 (single isomer, unassigned) [Compound 76A, (4-(dimethylamino)cyclohexyl)-4-((4-(4,4-dimethylcyclohexyl)phenyl)amino)cyclohexane-1-carboxamide] | 
18 | 0.1 to 100 nM | NC1CCC(Nc2ccc3c(c2)CCCC3)CC1 (centres unmarked) [Compound 236, N1-(5,6,7,8-tetrahydronaphthalen-2-yl)cyclohexane-1,4-diamine] | 
19 | 100 to 1000 nM | CC(C)(C)c1ccc(NC2CCc3nc(N)sc3C2)cc1 (centres unmarked) [Compound 204, 4-N-(4-(tert-butyl)phenyl)-4,5,6,7-tetrahydrobenzo[d]thiazole-2,6-diamine] | 
20 | 100 to 1000 nM | CC(C)c1ccc(NC2CCC(N)CC2)cc1 (centres unmarked) [Compound 127, N1-(4-isopropylphenyl)cyclohexane-1,4-diamine] | 
21 |  | CC1(C)CCC(c2ccc(NC3CCC(C(N)=O)CC3)cc2)CC1 (single isomer, unassigned) [Compound 159A, 4-((4-(4,4-dimethylcyclohexyl)phenyl)amino)cyclohexane-1-carboxamide] | EC50 (Table 2): 0.1 to 100 nM
22 | 0.1 to 100 nM | CC1CC(Nc2ccc(C(C)(C)C)cc2)CCC1N (centres unmarked) [Compound 250A, N1-(4-(tert-butyl)phenyl)-3-methylcyclohexane-1,4-diamine] | 

Row | EC50 [1] | SMILES | also measured
23 | 0.1 to 100 nM | CC1CN(c2ccc3cc(NC4CC5(CC(N)C5)C4)ccc3n2)CC(C)N1CC(F)(F)F (centres unmarked) [Compound 567, N2-(2-(3,5-dimethyl-4-(2,2,2-trifluoroethyl)piperazin-1-yl)quinolin-6-yl)spiro-[3.3]heptane-2,6-diamine] | 
24 | 0.1 to 100 nM | CN(C)C1CCC(Nc2ccc(C3CCC(C)(C)CC3)cc2)CC1 (single isomer, unassigned) [Compound 91A, N1-(4-(4,4-dimethylcyclohexyl)phenyl)-N4,N4-dimethylcyclohexane-1,4-diamine] | 
25 |  | NC1CC2(C1)CC(Nc1ccc3nc(NCC(F)(F)F)ccc3c1)C2 (centres unmarked) [Compound 639, N^6-(6-aminospiro[3.3]heptan-2-yl)-N^2-(2,2,2-trifluoroethyl) quinoline-2,6-diamine] | EC50 [2]: 0.1 to 100 nM
26 | 0.1 to 100 nM | CC1(C)CCC(c2ccc(NCCCN)cc2)CC1 [Compound 209, 1-N-(4-(4,4-dimethylcyclohexyl)phenyl)propane-1,3-diamine] | 
27 | 0.1 to 100 nM | CCCc1ccc(NC[C@H]2CC[C@H](N)CC2)cc1 [Compound 315, N-(((1r,4r)-4-aminocyclohexyl)methyl)-4-propylaniline] | 
28 |  | Cc1cc(N2CC(C)OC(C)C2)ccc1NCC1CCC(N)CC1 (centres unmarked) [Compound 407, N-(((1r,4r)-4-aminocyclohexyl)methyl)-4-(2,6-dimethylmorpholino)-2-methylaniline] | EC50 (Table 2): 0.1 to 100 nM
29 | 0.1 to 100 nM | COCCCCNc1ccc(N2CCC(C(F)(F)F)CC2)cc1 [Compound 12, N-(4-methoxybutyl)-4-(4-(trifluoromethyl)piperidin-1-yl)aniline] | 
30 | 0.1 to 100 nM | CNCC1CCC(Nc2ccc(C(C)(C)C)cc2)CC1 (centres unmarked) [Compound 87, 4-(tert-butyl)-N-(4-((methylamino)methyl)cyclohexyl)aniline] | 
31 | 0.1 to 100 nM | COC(=O)C1CCC(Nc2ccc(N3CCC(C(F)(F)F)CC3)cc2)CC1 (centres unmarked) [Compound 6A, methyl 4-((4-(4-(trifluoromethyl)piperidin-1-yl)phenyl)amino)cyclohexane-1-carboxylate] | 
32 |  | Cc1nc(N2CCOC3(CC3)C2)ccc1NC1CC2(CC(N)C2)C1 (centres unmarked) [Compound 623, N^2-(2-methyl-6-(4-oxa-7-azaspiro[2.5]octan-7-yl)pyridin-3-yl)spiro[3.3]heptane-2,6-diamine] | EC50 [2]: 0.1 to 100 nM
33 | 100 to 1000 nM | CC(C)(C)c1ccc(N[C@@H]2C[C@H](N)C[C@H](N)C2)cc1 [Compound 345, (1s,3R,5S)-N1-(4-(tert-butyl)phenyl)cyclohexane-1,3,5-triamine] | 
34 | 0.1 to 100 nM | CC1(C)CCC(c2ccc(NC3CCC(CNC(=O)C4CNC(=O)C4)CC3)cc2)CC1 (single isomer, unassigned) [Compound 106A] | 
35 | 0.1 to 100 nM | NCC1CCC(Nc2ccc3c(c2)CCCC3)CC1 (centres unmarked) [Compound 286, N-(4-(aminomethyl)cyclohexyl)-5,6,7,8-tetrahydronaphthalen-2-amine] | 
36 | 0.1 to 100 nM | Cc1nc(N2CC(C)OC(C)C2)ccc1NC1C2CC3CC1CC(N)(C3)C2 (centres unmarked) [Compound 474A, N^4-(6-(2.6-dimethylmorpholino)-2-methylpyridin-3-yl)adamantane-1,4-diamine] | 
37 | 0.1 to 100 nM | Cc1nc(N2CC(C)(C)OC(C)(C)C2)ccc1NC[C@H]1CC[C@H](N)CC1 [Compound 514, N-(((1r,4r)-4-aminocyclohexyl)methyl)-2-methyl-6-(2,2,6,6-tetramethylmorpholino)pyridin-3-amine] | 
38 | 100 to 1000 nM | NC1CCC(Nc2cnc(N3CC4(CCC4)C3)nc2)CC1 (centres unmarked) [Compound 47, N1-(2-(2-azaspiro[3.3]heptan-2-yl)pyrimidin-5-yl)cyclohexane-1,4-diamine] | 
39 |  | Cc1nc(N2CC(C)N(CC(F)(F)F)C(C)C2)ccc1NC1CC(N)C1 (centres unmarked) [Compound 619] | EC50 [2]: 0.1 to 100 nM
40 | 1000 to 10000 nM | CC(C)(C)c1ccc(NCCc2cnc[nH]2)cc1 [Compound 177, N-(2-(1H-imidazol-5-yl)ethyl)-4-(tert-butyl)aniline] | 
41 | 0.1 to 100 nM | Cc1nc(N2CC(C)OC(C)C2)c(F)cc1NC1C2CC3CC1CC(N)(C3)C2 (centres unmarked) [Compound 519, N4-(6-(2,6-dimethylmorpholino)-5-fluoro-2-methylpyridin-3-yl)adamantane-1,4-diamine] | 
42 | 100 to 1000 nM | CCCC(CCC)Nc1ccc(C(C)(C)C)cc1 [Compound 188, 4-(tert-butyl)-N-(heptan-4-yl)aniline] | 
43 |  | Cc1nc(N2CC[Si](C)(C)CC2)ccc1NC1CC2(CC(O)C2)C1 (centres unmarked) [Compound 625, 6-((6-(4,4-dimethyl-1,4-azasilinan-1-yl)-2-methylpyridin-3-yl)amino)spiro[3.3]heptan-2-ol] | EC50 [2]: 0.1 to 100 nM

Row | SMILES | EC50 [1] | also measured
44 | CC(C)(C)OC(=O)N[C@H]1CC[C@H](CNc2ccc(N3CC4CC(C3)O4)c(F)c2)CC1 [Compound 506, tert-butyl ((1r,4r)-4-(((4-(6-oxa-3-azabicyclo[3.1.1]heptan-3-yl)-3-fluorophenyl)amino)methyl)cyclohexyl) carbamate] | 0.1 to 100 nM | 
